Values after ≈ are worked out from the molar mass of the structure shown.
Tests used:
6 MRSA strains = test: MIC, panel of 6 MRSA strains; assay type: cell-based; conditions: Staphylococcus aureus, across the panel of tested Gram-positive strains, read-out: MIC against all the 6 MRSA strains
Description: Antibacterial activity: The compounds were tested for the minimum inhibitory concentrations (MIC), which is the lowest concentration of a chemical required to inhibit visible microbial growth following overnight incubation. MIC values were determined using broth microdilution method according to the Clinical and Laboratory Standards Institute guidelines (CLSI, 2015, M07-A10). Mueller-Hinton broth was used as a culture medium in all the experiments. Exponentially growing bacterial cells were prepared in Mueller-Hinton broth at a concentration of approximately 5×10^5 CFU/mL. Two-fold serial dilutions of the test compound (8 concentrations ranged between 100-0.78 μg/mL) were tested. […] In each experiment, solvent (DMSO) was used as a negative control, un-treated control (composing of bacteria in Mueller-Hinton broth) was used as a growth control, blank (culture media alone) was used as sterility control. The 96-well microplate with the test compounds was incubated overnight at 37° C. Turbidity in wells indicated bacterial growth.
The compounds were tested on six MDR Gram-positive bacteria including three clinical isolates of methicillin-resistant Staphylococcus aureus (MRSA-1, MRSA-2 and MRSA-3) and three reference MRSA strains (ATCC33591, ATCC33592 and ATCC700699). They were also tested on three MDR Gram-negative bacteria including New Delhi metallo-beta-lactamase (NDM-1) positive, carbapenem-resistant E. coli (ATCC BAA2469), extended-spectrum beta-lactamase (ESBL) producing, colistin-resistant E. coli (CDC-AR-0346) and carbapenem-resistant Acinetobacter baumannii (ATCC BAA1605), in addition to two non-MDR bacteria from the same species, namely E. coli (ATCC 25922) Acinetobacter baumannii (ATCC 19606).

SKBR3 and SKOV3 = test: Crystal violet and DAPI staining; assay type: cell-based, human; conditions: compared to compounds 1d and 1k; 48 h
Description: Colony formation assay: Human Normal epithelial cells, SKBR3, and SKOV3 cells were treated with 1d, 1e and 1k compounds with indicated concentrations for 48 h. Then cells were fixed with colony fixation solution (Acetic acid/Methanol (1:7) vol/vol) at room temperature. 15 minutes later fixation solution was removed and cells were washed again carefully with 1×PBS. Cells were stained with 0.5% crystal violet at room temperature for 20 minutes. Crystal violet was removed and cells were washed carefully 3 times with distilled water to remove excess dye. Colony growth was visualized by crystal violet staining. DAPI staining: SKBR3 and SKOV3 cells were treated with indicated compounds. After 48 h of treatment, the media were removed from cell lines and cells were washed with 1× cold PBS. Cells were fixed with (Acetic acid/Methanol (1:7) vol/vol)) solution for 15 minutes at RT and then washed with 1× cold PBS. Permeabilization was performed with 0.1% Triton X-100 for 5 minutes and then cells were washed with 1× cold PBS. Cells were stain with DAPI solution for 15 minutes at RT and then cells were washed 3 times with 1× cold PBS. Images were taken using a fluorescence microscope.

SMILES: Cc1ccc2c(c1)c1c3n2[C@@]2(C=C/C(=N\Nc4ccc(C(F)(F)F)cc4)CC2)CC[C@@H]3NCC1 [Compound 1h]
- MIC (6 MRSA strains): 1.56 µg/mL (≈ 3.36 µM)

SMILES: FC(F)(F)c1ccc(N/N=C2\C=C[C@@]3(CC2)CC[C@@H]2NCCc4c2n3c2ccccc42)cc1 (racemic) [Compound 1e]
- Nuclear damage in cancer cell lines (DAPI staining) (SKBR3 and SKOV3): greater levels of nuclear damage
